The results in this text go back to PubChem BioAssay (NCI).

Structures are written as SMILES. In brackets after ≈: the same amount, converted by molar mass.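 Dose response: 5 concentrations. Exposure: 48 h. Format: 96-well plates. Endpoint: linear interpolation; highest concentration if not reached. At the GI50, growth is halved. At the TGI there is no net growth.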

Some test systems named below: TK-10 renal; IGROV1 ovarian; MDA-MB-435; UACC-257 melanoma; UO-31 renal; SW-620 colon; PC-3 prostate; MALME-3M melanoma; SNB-19 CNS; KM12 colon.
What all share (test): DTP human tumour cell line panel, 48 h

The TGI is the concentration at which net growth stops. Higher therefore signals lower sensitivity of the cells. On to `O=c1oc2ccccc2c(O)c1Cc1ccc(Cc2c(O)c3ccccc3oc2=O)cc1`, for which the TGI in the experiment on TK-10 renal, in the experiment with IGROV1 ovarian, with MDA-MB-435, in the experiment with UACC-257 melanoma, in the experiment with UO-31 renal and in the experiment with SW-620 colon was greater than 100 µM each time. Besides, the TGI with PC-3 prostate and with MALME-3M melanoma was greater than 100 µM in each case.

For orientation: GI50 means the concentration giving 50% growth inhibition. Turning to `O=C1NN(C2=NNC3(C(=O)N2)c2ccccc2-c2ccccc23)C(c2ccccc2)=N/C1=C/c1ccc(Cl)cc1`, the GI50 in the experiment with TK-10 renal is 50.5 mg/L (≈ 92.6 µM); in the experiment on IGROV1 ovarian it was 60.5 mg/L (≈ 111 µM); with MDA-MB-435, 44.2 mg/L (≈ 81.2 µM); in the experiment on SNB-19 CNS, 28.3 mg/L (≈ 52 µM); in the experiment on UACC-257 melanoma it was 68 mg/L (≈ 125 µM); in the experiment with UO-31 renal, 48 mg/L (≈ 88 µM). Further, the GI50 with SW-620 colon was 52.8 mg/L (≈ 96.9 µM); with PC-3 prostate it was 44.7 mg/L (≈ 82.1 µM); with KM12 colon, 33.4 mg/L (≈ 61.3 µM); in the experiment with MALME-3M melanoma it was 89.9 mg/L (≈ 165 µM). Besides, the TGI in the experiment with TK-10 renal was 132 mg/L; in the experiment with IGROV1 ovarian, greater than 150 mg/L; in the experiment on MDA-MB-435, greater than 150 mg/L; in the experiment on SNB-19 CNS it was 59.9 mg/L; in the experiment on UACC-257 melanoma it was greater than 150 mg/L; in the experiment on UO-31 renal, greater than 150 mg/L. Moreover, the TGI in the experiment on SW-620 colon is greater than 150 mg/L; in the experiment on PC-3 prostate it was greater than 150 mg/L; in the experiment with KM12 colon it was 96.2 mg/L; with MALME-3M melanoma it was greater than 150 mg/L.

On to `COC(=O)C(Cc1cn(C(C)n2cc(CC(NC(C)=O)C(=O)OC)c3ccccc32)c2ccccc12)NC(C)=O` (stereo not drawn), for which the TGI in the experiment with TK-10 renal, with IGROV1 ovarian, in the experiment on MDA-MB-435, in the experiment with SNB-19 CNS, with UACC-257 melanoma and in the experiment with UO-31 renal was greater than 100 µM throughout. Besides, the TGI in the experiment on SW-620 colon, in the experiment on PC-3 prostate, in the experiment on KM12 colon and in the experiment on MALME-3M melanoma was greater than 100 µM each time.
